# From article PMC7914463, “Caffeic Acid Modulates Processes Associated with Intestinal Inflammation” (Nutrients, 2021)
# Where two headings read alike, the source gives them in different places.
# Target: T1, angiotensin-converting enzyme (ACE) (Sus scrofa, UniProt F1RRW5)
# T1 construct: ACE isolated from porcine kidneys (EC 3.4.15.1)
# T1 sequence (F1RRW5 34-1309): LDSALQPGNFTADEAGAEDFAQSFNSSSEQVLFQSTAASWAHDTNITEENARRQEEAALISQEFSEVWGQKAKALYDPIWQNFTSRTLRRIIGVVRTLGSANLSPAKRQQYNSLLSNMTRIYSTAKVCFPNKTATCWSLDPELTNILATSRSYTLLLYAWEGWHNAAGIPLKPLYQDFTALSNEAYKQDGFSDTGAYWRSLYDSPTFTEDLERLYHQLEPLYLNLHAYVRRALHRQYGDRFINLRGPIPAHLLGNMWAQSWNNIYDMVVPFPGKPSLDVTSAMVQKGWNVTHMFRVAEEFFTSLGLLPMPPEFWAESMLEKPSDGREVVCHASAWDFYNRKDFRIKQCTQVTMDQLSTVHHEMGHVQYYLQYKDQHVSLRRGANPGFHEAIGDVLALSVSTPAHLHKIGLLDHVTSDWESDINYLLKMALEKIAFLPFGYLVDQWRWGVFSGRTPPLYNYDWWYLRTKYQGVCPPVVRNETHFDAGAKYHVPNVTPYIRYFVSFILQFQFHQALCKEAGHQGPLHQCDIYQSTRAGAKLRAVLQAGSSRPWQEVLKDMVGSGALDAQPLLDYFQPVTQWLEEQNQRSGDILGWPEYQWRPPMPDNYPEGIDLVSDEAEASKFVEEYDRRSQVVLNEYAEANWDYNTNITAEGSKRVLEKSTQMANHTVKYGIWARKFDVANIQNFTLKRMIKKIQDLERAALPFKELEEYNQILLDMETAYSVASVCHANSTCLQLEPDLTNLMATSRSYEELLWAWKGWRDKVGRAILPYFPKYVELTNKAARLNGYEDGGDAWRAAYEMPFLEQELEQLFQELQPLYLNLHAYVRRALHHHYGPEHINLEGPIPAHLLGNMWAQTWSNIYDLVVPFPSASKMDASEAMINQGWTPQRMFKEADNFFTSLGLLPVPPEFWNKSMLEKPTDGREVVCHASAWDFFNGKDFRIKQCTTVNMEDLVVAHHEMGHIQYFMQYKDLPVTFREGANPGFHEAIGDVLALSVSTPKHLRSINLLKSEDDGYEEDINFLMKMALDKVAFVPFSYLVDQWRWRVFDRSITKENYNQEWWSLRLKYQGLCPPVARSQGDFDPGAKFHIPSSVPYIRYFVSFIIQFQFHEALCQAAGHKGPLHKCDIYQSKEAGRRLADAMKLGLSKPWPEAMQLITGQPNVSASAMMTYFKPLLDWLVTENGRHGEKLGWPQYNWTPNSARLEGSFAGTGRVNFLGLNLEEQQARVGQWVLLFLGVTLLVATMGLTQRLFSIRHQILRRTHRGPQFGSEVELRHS
# Experiment: fluorescence assay, hydrolysis of Abz-Gly-Phe(NO2)-Pro
# Type: biochemical
SMILES,IC50,IC50 (read-out: IC50 (μg/mL) (converted)) [mM]
"O=C1O[C@H]([C@@H](O)CO)C(O)=C1O [AA, L-ascorbic acid]",81.3 mM,
"O=C(O)/C=C/c1ccc(O)c(O)c1 [CFA, Caffeic acid]",,8.97
N[C@@H](CCC(=O)N[C@@H](CS)C(=O)NCC(=O)O)C(=O)O [GSH],12.79 ± 1.70 µg/mL,
